For 25 compounds, IC50 results are on record in patent US20120165310A1, “ETHER DERIVATIVES OF BICYCLIC HETEROARYLS” (NOVARTIS AG, priority 2009, published 2012).

The target in the assay is T1, IGF-1R (Homo sapiens, UniProt P08069).
T1 construct: expressed in transfected cells; host or cells: Hek293 (Hek293-IGF1R)
T1 sequence (P08069 31-1367): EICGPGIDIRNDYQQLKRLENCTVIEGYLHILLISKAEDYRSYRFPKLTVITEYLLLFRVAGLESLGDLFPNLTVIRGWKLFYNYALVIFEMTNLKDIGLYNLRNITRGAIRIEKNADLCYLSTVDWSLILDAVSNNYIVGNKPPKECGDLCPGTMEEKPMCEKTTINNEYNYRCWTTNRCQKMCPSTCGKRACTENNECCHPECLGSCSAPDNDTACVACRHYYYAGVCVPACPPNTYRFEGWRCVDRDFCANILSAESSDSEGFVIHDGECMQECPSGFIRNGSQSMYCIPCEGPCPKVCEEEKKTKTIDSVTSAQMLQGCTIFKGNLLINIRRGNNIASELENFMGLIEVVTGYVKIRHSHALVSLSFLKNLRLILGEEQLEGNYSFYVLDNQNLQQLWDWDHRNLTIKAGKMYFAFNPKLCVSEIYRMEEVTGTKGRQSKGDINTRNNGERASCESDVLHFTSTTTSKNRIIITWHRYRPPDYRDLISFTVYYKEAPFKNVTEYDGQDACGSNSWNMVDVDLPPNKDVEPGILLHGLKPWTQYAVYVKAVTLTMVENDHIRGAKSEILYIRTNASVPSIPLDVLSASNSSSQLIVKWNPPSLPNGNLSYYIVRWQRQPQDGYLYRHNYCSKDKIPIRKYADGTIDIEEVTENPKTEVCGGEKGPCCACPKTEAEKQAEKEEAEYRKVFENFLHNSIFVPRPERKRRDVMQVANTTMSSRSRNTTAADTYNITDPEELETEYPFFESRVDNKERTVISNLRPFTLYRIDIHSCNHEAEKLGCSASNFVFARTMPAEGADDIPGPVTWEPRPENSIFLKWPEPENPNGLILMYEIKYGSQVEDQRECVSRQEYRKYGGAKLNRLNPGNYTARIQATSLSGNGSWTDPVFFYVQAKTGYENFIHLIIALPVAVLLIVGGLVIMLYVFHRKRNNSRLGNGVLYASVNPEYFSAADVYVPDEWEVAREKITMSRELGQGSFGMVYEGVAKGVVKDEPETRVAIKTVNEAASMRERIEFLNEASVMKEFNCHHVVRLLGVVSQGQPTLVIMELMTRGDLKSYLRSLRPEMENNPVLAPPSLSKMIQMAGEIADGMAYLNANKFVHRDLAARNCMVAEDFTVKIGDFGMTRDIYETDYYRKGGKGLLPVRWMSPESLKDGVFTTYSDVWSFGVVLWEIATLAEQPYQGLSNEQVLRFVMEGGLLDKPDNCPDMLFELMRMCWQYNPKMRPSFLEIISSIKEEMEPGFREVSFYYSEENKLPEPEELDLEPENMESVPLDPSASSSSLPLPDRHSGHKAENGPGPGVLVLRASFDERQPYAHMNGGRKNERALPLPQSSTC
Nature of the assay: Cellular IGF-1R assay: capture ELISA (MSD) of receptor phosphorylation in Hek293 cells. The format is cell-based. Particulars: Hek293-IGF1R cells, 1 h pre-incubation, 10 min IGF stimulation, pIGF1R capture ELISA. Put shortly:
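IC50 from 4-parameter fit of IGF1R phosphorylation, normalised to IGF-stimulated and unstimulated controls, measured by MSD capture ELISA on lysates. Hek293-IGF1R cells in starvation medium got compound 1 h (top 10 μM, 3-fold steps, 0.1% DMSO) before a 10 min pulse of 1.0 ng/μL IGF.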
For `CC1(C)CCC(COc2cccc(-c3cn([C@H]4C[C@@H](CN5CC(O)C5)C4)c4ncnc(N)c34)c2)O1` (relative stereo) [Example 41, 1-(cis-3-{4-amino-5-[3-(5,5-dimethyl-tetrahydro-furan-2-ylmethoxy)-phenyl]-pyrrolo[2,3-d]pyrimidin-7-yl}-cyclobutylmethyl)-azetidin-3-ol], 41 nM corresponded to half-maximal inhibition (IC50). That is a double-digit nanomolar value.
Turning to `Nc1ncnc2c1c(-c1cccc(OCC34CCC(CC3)O4)c1)cn2[C@H]1CC[C@@H](CN2CCNC(=O)C2)CC1` [Example 129, 4-(((1S,4S)-4-(5-(3-(7-oxabicyclo[2.2.1]heptan-1-ylmethoxy)phenyl)-4-amino-7H-pyrrolo[2,3-d]pyrimidin-7-yl)cyclohexyl)methyl)piperazin-2-one], it took 320 nM to reach half-maximal inhibition (IC50). This IC50 lies about 7.8-fold higher than the previous one.
With `Nc1ncnc2c1c(-c1cccc(OCC34CCC(CC3)O4)c1)cn2[C@H]1C[C@@H](O)C1` (relative stereo) [Example 221, cis-3-{4-amino-5-[3-(7-oxa-bicyclo[2.2.1]hept-1-ylmethoxy)-phenyl]-pyrrolo[2,3-d]pyrimidin-7-yl}cyclobutanol] the figure was 411 nM; with `CC1(C)CCC(COc2cccc(-c3cn([C@H]4C[C@@H](CN5CC(C(N)=O)C5)C4)c4ncnc(N)c34)c2)O1` (relative stereo) [Example 49, 1-(cis-3-{4-amino-5-[3-(5,5-dimethyl-tetrahydro-furan-2-ylmethoxy)-phenyl]-pyrrolo[2,3-d]pyrimidin-7-yl}-cyclobutylmethyl)-azetidine-3-carboxylic acid amide], 192 to 241 nM.
Take `Nc1ncnc2c1c(-c1cccc(OCC34CCC(CC3)O4)c1)cn2C1CCC(N2CCS(=O)(=O)CC2)CC1` (stereo not shown) [Example 131, 7-[4-(1,1-Dioxo-1λ6-thiomorpholin-4-yl)-cyclohexyl]-5-[3-(7-oxa-bicyclo[2.2.1]hept-1-ylmethoxy)-phenyl]-7H-pyrrolo[2,3-d]pyrimidin-4-ylamine]: half-maximal inhibition (IC50) required 108 nM. That is a sub-micromolar value.
As for `Nc1ncnc2c1c(-c1cccc(OCC34CCC(CC3)O4)c1)cn2[C@H]1C[C@@H](CN2CCC(O)CC2)C1` (relative stereo) [Example 184, 1-(cis-3-{4-Amino-5-[3-(7-oxa-bicyclo[2.2.1]hept-1-ylmethoxy)-phenyl]-pyrrolo[2,3-d]pyrimidin-7-yl}-cyclobutylmethyl)-piperidin-4-ol], the figure is 9 nM; as for `NC(=O)[C@@H]1CCCN1C[C@H]1C[C@@H](n2cc(-c3cccc(OCC45CCC(CC4)O5)c3)c3c(N)ncnc32)C1` [Example 68, (S)-1-(cis-3-(4-amino-5-[3-(7-oxa-bicyclo[2.2.1]hept-1-ylmethoxy)-phenyl]-pyrrolo[2,3-d]pyrimidin-7-yl)-cyclobutylmethyl)-pyrrolidine-2-carboxylic acid amide], 12 nM; as for `CC1(C)CCC(COc2cccc(-c3cn(C4CCC(N5CCC[C@H]5C(N)=O)CC4)c4ncnc(N)c34)c2)O1` (stereo partly drawn) [Example 69, (S)-1-(4-{4-amino-5-[3-(5,5-dimethyl-tetrahydro-furan-2-ylmethoxy)-phenyl]-pyrrolo[2,3-d]pyrimidin-7-yl}-cyclohexyl)-pyrrolidine-2-carboxylic acid amide], 388 nM.
Consider `CN1CCN(C[C@H]2C[C@@H](n3cc(-c4cccc(OCC56CCC(CC5)O6)c4)c4c(N)ncnc43)C2)CC1=O` (relative stereo) [Example 210, 4-(cis-3-{4-Amino-5-[3-(7-oxa-bicyclo[2.2.1]hept-1-ylmethoxy)-phenyl]-pyrrolo[2,3-d]pyrimidin-7-yl}-cyclobutylmethyl)-1-methyl-piperazin-2-one], for which the IC50 – broadly, the concentration at which inhibition is half-maximal – lay in the range of 115 to 194 nM.
`Nc1ncnc2c1c(-c1cccc(OCC34CCC(CC3)O4)c1)cn2[C@H]1CC[C@@H](NC(=O)C2CCOCC2)CC1` [Example 141, N-((1S,4S)-4-(5-(3-(7-oxabicyclo[2.2.1]heptan-1-ylmethoxy)phenyl)-4-amino-7H-pyrrolo[2,3-d]pyrimidin-7-yl)cyclohexyl)tetrahydro-2H-pyran-4-carboxamide] showed an IC50 of 21 nM.
With `Nc1ncnc2c1c(-c1cccc(OCC34CCC(CC3)O4)c1)cn2[C@H]1C[C@H](N2CC3CC2CN3CCO)C1` (stereo partly drawn) [Example 175, 2-[(trans-3-{4-amino-5[3-(7-oxa-bicyclo[2.2.1]hept-1-ylmethoxy)-phenyl]-pyrrolo[2,3-d]pyrimidin-7-yl}-cyclobutyl)-2,5-diaza-bicyclo[2.2.1]hept-2-yl]-ethanol] the figure was 436 nM; with `Nc1ncnc2c1c(-c1cccc(OCC3CCCCO3)c1)cn2[C@H]1C[C@H](CN2CC(O)C2)C1` (relative stereo) [Example 36, 1-(trans-3-{4-amino-5-[3-(tetrahydro-pyran-2-ylmethoxy)-phenyl]pyrrolo[2,3-d]pyrimidin-7-yl}-cyclobutylmethyl)-azetidin-3-ol], 372 nM; with `COC(=O)NCC1CC(n2cc(-c3cccc(OCC45CCC(CC4)O5)c3)c3c(N)ncnc32)C1` (stereo not shown) [Example 161, (3-{4-amino-5-[3-(7-oxa-bicyclo[2.2.1]hept-1-ylmethoxy)-phenyl]-pyrrolo[2,3-d]pyrimidin-7-yl}-cyclobutylmethyl)-carbamic acid methyl ester], 16 nM.
For the compound `Nc1ncnc2c1c(-c1cccc(OCC3CCCO3)c1)cn2[C@H]1C[C@@H](CN2CCS(=O)(=O)CC2)C1` (relative stereo) [Example 88, 7-[cis-3-(1,1-Dioxothiomorpholin-4-ylmethyl)-cyclobutyl]-5-[3-(tetrahydro-furan-2-ylmethoxy)-phenyl]-7H-pyrrolo[2,3-d]pyrimidin-4-ylamine], half-maximal inhibition (IC50) was put at 234 nM.
As to `NC(=O)[C@@H]1[C@@H]2C[C@@H]2CN1CC1CC(n2cc(-c3cccc(OCC4CCCCO4)c3)c3c(N)ncnc32)C1` (stereo partly drawn) [Example 102, (1R,2S,5S)-3-(((1S,3R)-3-(4-amino-5-(3-((tetrahydro-2H-pyran-2-yl)methoxy)phenyl)-7H-pyrrolo[2,3-d]pyrimidin-7-yl)cyclobutyl)methyl)-3-azabicyclo[3.1.0]hexane-2-carboxamide], 43 nM corresponded to half-maximal inhibition (IC50).
Take `Nc1ncnc2c1c(-c1cccc(OC[C@@H]3CCCO3)c1)cn2[C@H]1C[C@@H](N2CC[S+]([O-])CC2)C1` [Example 234, 7-[cis-3-(1-oxo-thiomorpholin-4-yl)-cyclobutyl]-5-{3-[(S)-1-(tetrahydro-furan-2-yl)methoxy]-phenyl}-7H-pyrrolo[2,3-d]pyrimidin-4-ylamine]: 309 nM corresponded to half-maximal inhibition (IC50). Compared with the last compound, the IC50 is about 7.2-fold higher.
As for `NC(=O)[C@@H]1CCCN1C[C@H]1C[C@H](n2cc(-c3cccc(OCC4CCCO4)c3)c3c(N)ncnc32)C1` (stereo partly drawn) [Example 86, (S)-1-(trans-3-(4-amino-5-[3-(tetrahydro-furan-2-ylmethoxy)-phenyl]-pyrrolo[2,3-d]pyrimidin-7-yl}-cyclobutylmethyl)-pyrrolidine-2-carboxylic acid amide], the figure is 47 nM; as for `CC1(C)CCC(COc2cccc(-c3cn([C@H]4C[C@@H](CN5CC[C@@H](O)C5)C4)c4ncnc(N)c34)c2)O1` (stereo partly drawn) [Example 58, (R)-1-(cis-3-{4-amino-5-[3-(5,5-dimethyl-tetrahydro-furan-2-ylmethoxy)-phenyl]-pyrrolo[2,3-d]pyrimidin-7-yl}cyclobutylmethyl)-pyrrolidin-3-ol], 50 nM; as for `Nc1ncnc2c1c(-c1cccc(OCC3CCCO3)c1)cn2[C@H]1C[C@H](CN2CCS(=O)(=O)CC2)C1` (relative stereo) [Example 89, 7-[trans-3-(1,1-Dioxothiomorpholin-4-ylmethyl)-cyclobutyl]-5-[3-(tetrahydro-furan-2-ylmethoxy)-phenyl]-7H-pyrrolo[2,3-d]pyrimidin-4-ylamine], 316 nM.
With `Nc1ncnc2c1c(-c1cccc(OCC34CCC(CC3)O4)c1)cn2[C@H]1C[C@@](O)(CN2CCS(=O)(=O)CC2)C1` [Example 205, (E)-3-{4-Amino-5-[3-(7-oxa-bicyclo[2.2.1]hept-1-ylmethoxy)-phenyl]-pyrrolo[2,3-d]pyrimidin-7-yl}-1-(1,1-dioxo-1lambda*6*-thiomorpholin-4-ylmethyl)-cyclobutanol] the figure was 14 nM; with `CC1CCC(COc2cccc(-c3cn(C4CC(CN5CCC5)C4)c4ncnc(N)c34)c2)O1` (single isomer, unassigned) [Example 6, cis-(RR and SS)-7-(3-azetidin-1-ylmethyl-cyclobutyl)-5-[3-(5-methyl-tetrahydro-furan-2-ylmethoxy)-phenyl]-7H-pyrrolo[2,3-d]pyrimidin-4-ylamine], 30 nM.
In turn, `Nc1ncnc2c1c(-c1cccc(OCC34CCC(CC3)O4)c1)cn2[C@H]1CC[C@@H](Cn2ccnc2)CC1` [Example 148, 7-((1S,4S)-4-((1H-imidazol-1-yl)methyl)cyclohexyl)-5-(3-(7-oxabicyclo[2.2.1]heptan-1-ylmethoxy)phenyl)-7H-pyrrolo[2,3-d]pyrimidin-4-amine] came in with an IC50 of 247 nM.
With `Cc1nccn1C[C@H]1C[C@@H](n2cc(-c3cccc(OCC45CCC(C)(CC4)O5)c3)c3c(N)ncnc32)C1` (relative stereo) [Example 157, 7-[cis-3-(2-methyl-imidazol-1-ylmethyl)-cyclobutyl]-5-[3-(4-methyl-7-oxa-bicyclo[2.2.1]hept-1-ylmethoxy)-phenyl]-7H-pyrrolo[2,3-d]pyrimidin-4-ylamine], the IC50 is 106 to 448 nM.
As for `Nc1ncnc2c1c(-c1cccc(OCC34CCC(CC3)O4)c1)cn2C1CC(CN2CCC[C@H]2CO)C1` (stereo partly drawn) [Example 25, [(S)-1-(3-{4-amino-5-[3-(7-oxa-bicyclo[2.2.1]hept-1-ylmethoxy)-phenyl]-pyrrolo[2,3-d]pyrimidin-7-yl}-cyclobutylmethyl)-pyrrolidin-2-yl]-methanol], the figure is 4 to 14 nM.
With `NC(=O)[C@@H]1CCCN1C[C@H]1C[C@@H](n2cc(-c3cccc(OC[C@@H]4CCCCO4)c3)c3c(N)ncnc32)C1` [Example 44, (S)-1-[3-(4-amino-5-{3-[(S)-1-(tetrahydro-pyran-2-yl)methoxy]-phenyl}-pyrrolo[2,3-d]pyrimidin-7-yl)-cyclobutylmethyl]-pyrrolidine-2-carboxylic acid amide], the IC50 lay within 7 to 15 nM.
